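1) Cells in 96-well plates. 2) Compound, 48 h, 5 concentrations. 3) Linear interpolation between surrounding doses. 4) Unreached endpoint = highest concentration. GI50 marks 50% less growth.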 Calls of active or inactive are those of the source. No stated cut-off is given here; in the data, active = GI50 up to about 1.1 µM and inactive = higher.
Legend:
Assay in all cases: inhibition of tumour cell growth, NCI panel, 48 h
SN12C = tested on: SN12C
HCC 2998 = tested on: HCC 2998
LOX IMVI = tested on: LOX IMVI
SF-268 = tested on: SF-268
NCI/ADR-RES = tested on: NCI/ADR-RES
NCI-H522 = tested on: NCI-H522
SK-OV-3 = tested on: SK-OV-3
EKVX = tested on: EKVX
PC-3 = tested on: PC-3
786-0 = tested on: 786-0
Malme-3M = tested on: Malme-3M
UO-31 = tested on: UO-31
T47D = tested on: T47D
U-251 = tested on: U-251
A549 = tested on: A549
TK-10 = tested on: TK-10
NCI-H23 = tested on: NCI-H23
NCI-H226 = tested on: NCI-H226
HT-29 = tested on: HT-29
HOP-92 = tested on: HOP-92

Measured: GI50

O=C(Cc1ccccc1)NCCc1ccc(O)c(O)c1
inactive: SN12C 95.9 µM | HCC 2998 > 100 µM | LOX IMVI 44.7 µM | SF-268 63.1 µM | NCI/ADR-RES > 100 µM | NCI-H522 28.4 µM | SK-OV-3 > 100 µM | EKVX > 100 µM | PC-3 > 100 µM | 786-0 93.3 µM | Malme-3M > 100 µM | UO-31 41.2 µM | T47D > 100 µM | U-251 78.7 µM | A549 > 100 µM | TK-10 > 100 µM | NCI-H23 52.6 µM | NCI-H226 > 100 µM | HT-29 > 100 µM | HOP-92 > 100 µM

NC(=O)c1cc2ccc(O)cc2o/c1=N/NC(=O)c1ccccc1
inactive: SN12C 63.7 µM | HCC 2998 33.4 µM | LOX IMVI 47.8 µM | SF-268 > 100 µM | NCI/ADR-RES > 100 µM | NCI-H522 42.3 µM | SK-OV-3 61.2 µM | EKVX > 100 µM | PC-3 83.2 µM | 786-0 79.4 µM | Malme-3M 84.3 µM | UO-31 67 µM | T47D 15.6 µM | U-251 > 100 µM | A549 > 100 µM | TK-10 36.1 µM | NCI-H23 89.9 µM | NCI-H226 39.4 µM | HT-29 > 100 µM | HOP-92 > 100 µM

CC(C)(C)C=C=C(C(C)(C)C)P(=O)(O)O
inactive: SN12C > 100 µM | HCC 2998 > 100 µM | LOX IMVI > 100 µM | SF-268 > 100 µM | NCI/ADR-RES > 100 µM | NCI-H522 > 100 µM | SK-OV-3 > 100 µM | EKVX > 100 µM | PC-3 > 100 µM | 786-0 > 100 µM | Malme-3M > 100 µM | T47D > 100 µM | U-251 > 100 µM | A549 > 100 µM | TK-10 > 100 µM | NCI-H23 > 100 µM | NCI-H226 > 100 µM | HT-29 > 100 µM | HOP-92 > 100 µM

C/C(=C\CNc1ncnc2[nH]c(Cl)nc12)CO
inactive: SN12C > 100 µM | HCC 2998 > 100 µM | LOX IMVI > 100 µM | SF-268 > 100 µM | NCI/ADR-RES > 100 µM | NCI-H522 > 100 µM | SK-OV-3 > 100 µM | EKVX > 100 µM | PC-3 > 100 µM | 786-0 > 100 µM | Malme-3M > 100 µM | UO-31 > 100 µM | T47D > 100 µM | A549 > 100 µM | TK-10 > 100 µM | NCI-H23 > 100 µM | NCI-H226 > 100 µM | HT-29 > 100 µM | HOP-92 > 100 µM

O=C1NC(c2ccccc2)C1N(Cc1ccccc1)Cc1ccccc1 (configuration not stated)
inactive: SN12C > 100 µM | HCC 2998 > 100 µM | LOX IMVI > 100 µM | SF-268 > 100 µM | NCI/ADR-RES > 100 µM | NCI-H522 > 100 µM | SK-OV-3 > 100 µM | EKVX > 100 µM | PC-3 > 100 µM | 786-0 > 100 µM | Malme-3M > 100 µM | UO-31 > 100 µM | T47D > 100 µM | U-251 > 100 µM | TK-10 > 100 µM | NCI-H23 > 100 µM | NCI-H226 > 100 µM | HT-29 > 100 µM | HOP-92 > 100 µM

COc1ccc(/C=C2\N=C(N3CCCCC3)NC2=O)cc1
inactive: SN12C > 100 µM | HCC 2998 > 100 µM | LOX IMVI 95.1 µM | SF-268 > 100 µM | NCI/ADR-RES > 100 µM | NCI-H522 57.4 µM | SK-OV-3 > 100 µM | EKVX > 100 µM | PC-3 > 100 µM | 786-0 > 100 µM | Malme-3M > 100 µM | UO-31 48.3 µM | T47D 34.5 µM | U-251 > 100 µM | A549 > 100 µM | TK-10 > 100 µM | NCI-H23 > 100 µM | NCI-H226 > 100 µM | HT-29 > 100 µM | HOP-92 > 100 µM

C[C@H](CCC(=O)O)[C@H]1CC[C@H]2[C@@H]3[C@H](O)C[C@@H]4C[C@H](O)CC[C@]4(C)[C@H]3C[C@H](O)[C@]12C
inactive: SN12C > 100 µM | HCC 2998 > 100 µM | LOX IMVI > 100 µM | SF-268 > 100 µM | NCI/ADR-RES > 100 µM | NCI-H522 > 100 µM | SK-OV-3 > 100 µM | EKVX > 100 µM | PC-3 > 100 µM | 786-0 > 100 µM | Malme-3M > 100 µM | UO-31 > 100 µM | T47D > 100 µM | U-251 > 100 µM | A549 > 100 µM | TK-10 > 100 µM | NCI-H23 > 100 µM | NCI-H226 > 100 µM | HT-29 > 100 µM | HOP-92 > 100 µM

From ChEMBL document CHEMBL1201862, “PubChem BioAssay data set” (2004)
